Assay results: PubChem BioAssay (NCI)
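Test compounds were applied to cells in 96-well plates for 48 hours at 5 doses. GI50: concentration for 50% inhibition of growth. The concentration for full growth arrest is given as TGI.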

Tests used:
Experiment in all cases: NCI tumour cell line growth inhibition, 48 h
[1] = test system: SF-295 CNS
[2] = test system: U251 CNS
[3] = test system: OVCAR-3 ovarian
[4] = test system: HL-60(TB) leukemia
[5] = test system: HOP-92 NSCLC
[6] = test system: UO-31 renal
[7] = test system: MOLT-4 leukemia
[8] = test system: SF-539 CNS
[9] = test system: LOX IMVI melanoma
[10] = test system: NCI/ADR-RES ovarian

Compound | TGI [1] | TGI [2] | TGI [3] | TGI [4] | TGI [5] | TGI [6] | TGI [7] | TGI [8] | TGI [9] | GI50 [1] | GI50 [2] | GI50 [3] | GI50 [4] | GI50 [10] | TGI [10] | GI50 [6] | GI50 [7] | GI50 [8] | GI50 [9] | GI50 [5]
CCOC(=O)C1=C(Nc2ccc(Br)cc2)OCC1=O | > 100 µM | > 100 µM | > 100 µM | 33.9 µM | > 100 µM | > 100 µM | > 100 µM | > 100 µM | – | – | – | – | – | – | – | – | – | – | – | –
CCOC(=O)C(C)(c1c(C)[nH]c2ccccc12)c1c(C)[nH]c2ccccc12 | 29 µM | 33.4 µM | 34 µM | 37.6 µM | – | 35 µM | 42.9 µM | 39.1 µM | – | – | – | – | – | – | – | – | – | – | – | –
CC1CCC(C(C)(C)c2ccccc2)C(=O)C1 (configuration not stated) | > 100 µM | > 100 µM | > 100 µM | > 100 µM | > 100 µM | > 100 µM | > 100 µM | > 100 µM | > 100 µM | – | – | – | – | – | – | – | – | – | – | –
COc1ccc2nc3cc(Cl)ccc3c(Sc3ccc(NC(C)=O)cc3)c2c1 | > 51.2 µM | > 20.7 µM | > 22.8 µM | 52 µM | > 27 µM | > 33.4 µM | 84.4 µM | 27.3 µM | 11.4 µM | – | – | – | – | – | – | – | – | – | – | –
COC(=O)c1c[nH]cc1CCCCc1c[nH]cc1C(=O)OC | > 100 µM | > 100 µM | > 100 µM | > 100 µM | > 100 µM | – | > 100 µM | > 100 µM | > 100 µM | – | – | – | – | – | – | – | – | – | – | –
O=C(NNc1cnccn1)c1nc2cc(F)ccc2n2cccc12 | > 100 µM | > 100 µM | > 100 µM | 2.82 µM | – | > 100 µM | > 100 µM | > 31.6 µM | – | 0.531 µM | 0.363 µM | 0.311 µM | 0.346 µM | 0.461 µM | > 44.8 µM | 0.261 µM | 0.34 µM | 0.847 µM | – | –
NC(=O)c1cn(Cc2ccccc2)c(=O)n1Cc1ccccc1 | > 100 µM | > 100 µM | > 100 µM | > 100 µM | > 100 µM | > 100 µM | > 100 µM | > 100 µM | > 100 µM | – | – | – | – | – | – | – | – | – | – | –
Cc1sc2c(c1C)C(c1ccc(Cl)cc1)=N[C@@H](CC(=O)Nc1ccc(OCCOCCOCCOCCNc3cccc4c3C(=O)N(C3CCC(=O)NC3=O)C4=O)cc1)c1nnc(C)n1-2 (some centres not stated) | > 100 µM | > 100 µM | > 100 µM | – | > 51.8 µM | > 100 µM | – | > 100 µM | 19.1 µM | 0.234 µM | 0.476 µM | 0.551 µM | – | > 52.8 µM | > 100 µM | 0.28 µM | – | 0.242 µM | 0.234 µM | < 0.0125 µM
COc1ccc(-c2cc(-c3ccc(Nc4ccnc5cc(Cl)ccc45)cc3)nc(N3CCOCC3)n2)cc1 | – | – | – | > 100 µM | 49.4 µM | > 100 µM | – | – | – | – | – | – | 4.8 µM | 3.01 µM | > 100 µM | > 100 µM | – | – | – | 4.83 µM
CC1COS(=O)O1 (configuration not stated) | > 100 µM | – | > 100 µM | > 100 µM | > 100 µM | > 100 µM | > 100 µM | > 100 µM | > 100 µM | – | – | – | – | – | – | – | – | – | – | –
CC(C)(C)OC(=O)N1C2CCCC23O[C@@H]1c1cc2c(cc1C3=O)OCO2 (some centres not stated) | 82.9 µM | > 100 µM | 40.2 µM | 38.3 µM | > 100 µM | > 100 µM | > 100 µM | 55.4 µM | – | – | – | – | – | – | – | – | – | – | – | –
O=C1C=CC(=CC=C2C=CN(CCCCCCCCCCC(=O)NCCCCCCCCCCCC(=O)O)C=C2)C=C1 | > 100 µM | > 100 µM | > 100 µM | > 100 µM | > 100 µM | > 100 µM | > 100 µM | > 100 µM | > 100 µM | – | – | – | – | – | – | – | – | – | – | –
CC12CCC(=O)N1c1cccnc1N2 (configuration not stated) | > 100 µM | > 100 µM | > 100 µM | > 100 µM | > 100 µM | > 100 µM | > 100 µM | > 100 µM | > 100 µM | – | – | – | – | – | – | – | – | – | – | –
O=C1c2ccccc2C(=O)N1C/C=N/NS(=O)(=O)c1ccc(Br)cc1 | > 100 µM | > 100 µM | > 100 µM | > 100 µM | > 100 µM | > 100 µM | > 100 µM | > 100 µM | – | – | – | – | – | – | – | – | – | – | – | –
Cc1ccc(C)c(N2C(=O)C(=O)C(c3nc4ccccc4o3)/C(=N/N)C2=O)c1 (configuration not stated) | > 100 µM | > 100 µM | > 100 µM | > 100 µM | > 100 µM | > 100 µM | > 100 µM | > 100 µM | – | – | – | – | – | – | – | – | – | – | – | –
NC(CCc1ncc(C(=O)O)s1)C(=O)O (configuration not stated) | > 100 µM | > 100 µM | > 100 µM | – | > 100 µM | > 100 µM | > 100 µM | > 100 µM | > 100 µM | – | – | – | – | – | – | – | – | – | – | –
C1=NC(N(Cc2ccccc2)Cc2ccccc2)N(Cc2ccccc2)N1 (configuration not stated) | 29.6 µM | 32.1 µM | 27.3 µM | > 100 µM | 25.6 µM | 33.9 µM | > 100 µM | 29.5 µM | 30.4 µM | – | – | – | – | – | – | – | – | – | – | –
COc1cc(/C=N\O[Si](C)(C)C(C)(C)C)ccc1O[Si](C)(C)C(C)(C)C | > 100 µM | 71.5 µM | 54.1 µM | > 100 µM | 60.1 µM | > 100 µM | > 100 µM | > 100 µM | 62 µM | – | – | – | – | – | – | – | – | – | – | –
C=CCC1(C)CCCCC1(O)CS(=O)c1ccccc1 (configuration not stated) | > 100 µM | > 100 µM | > 100 µM | > 100 µM | > 100 µM | > 100 µM | > 100 µM | > 100 µM | > 100 µM | – | – | – | – | – | – | – | – | – | – | –
O=C1C2[C@@H](C(=O)N1c1ccc(Br)cc1)C13C(=CC2([N+](=O)[O-])[C@@H]2C(=O)N(c4ccc(Br)cc4)C(=O)[C@@H]21)c1ccccc1N3c1ccccc1 (some centres not stated) | > 100 µM | > 100 µM | > 100 µM | > 100 µM | > 100 µM | 38.7 µM | > 100 µM | > 100 µM | > 100 µM | – | – | – | – | – | – | – | – | – | – | –
O=C1c2ccc3c4ccccc4n(-c4ccccc4)c3c2C(=O)N1c1ccc(Cl)cc1 | > 100 µM | > 100 µM | > 100 µM | > 100 µM | 75 µM | > 100 µM | > 100 µM | > 100 µM | > 100 µM | – | – | – | – | – | – | – | – | – | – | –
N#Cc1c(-c2ccco2)cc(-c2ccc(N)cc2)[nH]c1=O | > 100 µM | > 100 µM | > 100 µM | > 100 µM | > 100 µM | > 100 µM | > 100 µM | > 100 µM | > 100 µM | – | – | – | – | – | – | – | – | – | – | –
